From patent US20100234349A1, “PHARMACEUTICAL COMBINATIONS OF A NICOTINE RECEPTOR MODULATOR AND A COGNITIVE ENHANCER” (priority 2006, published 2010)
Entries after “also recorded” stand apart in the source; their conditions may differ.

Test system: mouse
Assay: mouse marble burying paradigm
Type: in vivo
Experimental: FIGS. 3A-3D show mouse marble burying 15 minutes after s.c. dosing of 1-(3-Pyridyl)-homopiperazine (Compound 1F of WO 99/21834) as cognition enhancer, and 30 minutes after p.o. dosing of 3-(3-Pyridin-3-yl-[1,2,4]oxadiazol-5-yl)-benzonitrile (Compound 4.15) as positive allosteric modulator: […]

Structure (SMILES) | ED50 (Mus musculus, sc, 0.25 h, read-out: ED50, mouse marble burying) [mg/kg] | effect in mouse marble burying, positive allosteric modulator alone (alone, dosed p.o. at 3 and 10 mg/kg, 30 minutes after dosing (FIG. 3A))
c1cncc(N2CCCNCC2)c1 [Compound 1F of WO 99/21834, 1-(3-Pyridyl)-homopiperazine, reference compound] | 0.56 | –
N#Cc1cccc(-c2nc(-c3cccnc3)no2)c1 [Compound 4.15, 3-(3-Pyridin-3-yl-[1,2,4]oxadiazol-5-yl)-benzonitrile] | – | no effect; also recorded: inactive
